Consider one molecule from BindingDB's records for doi:10.1016/j.bmcl.2003.11.033 (University of California, 2004).

The target in the test is Tyrosinase (Agaricus bisporus). Nature of the test: Inhibitory activity was evaluated against the oxidation of L-3,4-dihydroxyphenylalanine (L-DOPA) catalyzed by mushroom tyrosinase.

On to `COc1ccc(C=O)c(O)c1` [2-hydroxy-4-methoxybenzaldehyde], for which 30 µM corresponded to half-maximal inhibition (IC50).

The IC50 is the point on the concentration scale where inhibition reaches its midpoint. Low values mean higher potency, high ones lower potency.
